According to patent EP0741709B1, “AROMATIC 2-AMINO-IMIDAZOLE DERIVATIVES AS ALPHA-2A ADRENOCEPTOR AGONISTS” (Allergan Sales, Inc., priority 1994, dated 1995):

Tests used:
[1] = biological target: T1, human α2A (Homo sapiens, UniProt P08913); assay: Receptor binding assay, [3H]rauwolscine, CHO-C10 cell membranes; details: 22°C, 30 minutes
T1 construct: expressed in transfected cells; host or cells: CHO (CHO-C10)
T1 sequence (P08913 1-465): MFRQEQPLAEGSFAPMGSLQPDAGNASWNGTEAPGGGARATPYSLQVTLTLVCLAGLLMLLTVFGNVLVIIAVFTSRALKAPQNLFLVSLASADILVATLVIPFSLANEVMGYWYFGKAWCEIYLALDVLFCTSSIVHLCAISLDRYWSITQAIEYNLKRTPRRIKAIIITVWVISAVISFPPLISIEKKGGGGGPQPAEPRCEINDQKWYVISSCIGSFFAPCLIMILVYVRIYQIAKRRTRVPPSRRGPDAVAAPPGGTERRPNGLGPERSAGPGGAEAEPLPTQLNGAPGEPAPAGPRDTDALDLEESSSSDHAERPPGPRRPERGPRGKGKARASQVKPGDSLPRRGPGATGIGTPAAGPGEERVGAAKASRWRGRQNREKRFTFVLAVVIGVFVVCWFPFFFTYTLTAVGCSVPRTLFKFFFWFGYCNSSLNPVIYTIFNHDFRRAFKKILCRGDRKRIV
Protocol: Cell preparation: […] Cells were harvested by scraping and placed into cold buffer of the following composition: 50 mM Tris-HCl, 5 mM EDTA, pH 7.4). Cells were then homogenized with a Polytron homogenizer for 2 X 10 sec at setting #7, and centrifuged for 20 minutes at 49,000 x g. The pellet fraction was washed (resuspended in Tris-HCl, pH 8 buffer and centrifuged for 15-20 minutes at 49,000 x g) 2 times and stored at -100°C until binding assay. Binding Studies: […] Frozen membrane pellet was resuspended in 25 mM glycine/glycine, pH 7.5 and incubated with radioligand under the following conditions: […] RKC-[^3H]rauwolscine, 0°C, 120 minutes; and, HCC-[^3H]prazosin, 22°C, 30 minutes in a final volume of 500 ul. At the end of the incubation period, the samples were filtered through glass filters (Whatman GF/B) in a 96 well cell harvester and rapidly washed four times with 4 mL of iced-cold 50 mM Tris-HCl buffer. The filters were then oven dried and transferred to scintillation vials containing 10 mL of Beckman's Ready Protein® scintillation cocktail for counting. […] Protein concentrations were determined with a protein assay kit from Bio Rad. Binding isotherms, equilibrium dissociation and affinity constants were analyzed and determined by the non-linear least squares curve fitting programs EBDA (BioSoft) or AccuFit Competition/Saturation by Beckman. Cell preparation: […] Cells were harvested by scraping and placed into cold buffer of the following composition: 50 mM Tris-HCl, 5 mM EDTA, pH 7.4). Cells were then homogenized with a Polytron homogenizer for 2 X 10 sec at setting #7, and centrifuged for 20 minutes at 49,000 x g. The pellet fraction was washed (resuspended in Tris-HCl, pH 8 buffer and centrifuged for 15-20 minutes at 49,000 x g) 2 times and stored at -100°C until binding assay. […] Frozen membrane pellet was resuspended in 25 mM glycine/glycine, pH 7.4 and incubated with radioligand under the following conditions: […] At the end of the incubation period, the samples were filtered through glass fiber filters (Whatman GF/B) in a 96 well cell harvester and rapidly washed four times with 4 mL of iced-cold 50 mM Tris-CHl buffer. The filters were then oven dried and transferred to scintillation vials containing 5 mL of Beckman's Ready Protein® scintillation cocktail for counting. […] Protein concentrations were determined with a protein assay kit from Bio Rad. Binding isotherms, equilibrium dissociation and affinity constants were analyzed and determined by the non-linear least squares curve fitting programs AccuFit Competition/Saturation by Beckman.

[2] = biological target: α1 receptors; assay: Receptor binding assay, [3H]prazosin, human cerebral cortex (HCC) membranes; details: 22°C, 30 minutes, read-out: Ki (nM) α1 human brain
Protocol: Tissue preparation: Membrane suspensions were prepared from human cerebral cortex (HCC, for α1 receptors) obtained from the UCI Organ and Tissue Bank. Briefly, tissues (1g) were homogenized in 25 mL of ice-cold 5 mM tris, pH 7.4 with a Polytron homogenizer for 30 sec at setting #7, and centrifuged for 10-12 minutes at 300 x g a 4°C. The supernatant was filtered through 2 layers of gauze and diluted 1:2 with 50 mM Tris-HCl buffer, pH 7.4, then centrifuged at 49,000 x g for 20 minutes. The pellet fraction was washed 3 times (resuspended in Tris-HCl buffer and centrifuged for 20 minutes at 49,000 x g). The pellet was then stored at -80°C until the binding assay.
Binding Studies: The radioligands [^3H]rauwolscine (specific activity 80 Ci/mmol) and [^3H]prazosin (specific activity 76 Ci/mmol) were obtained from New England Nuclear, Boston, MA. Frozen membrane pellet was resuspended in 25 mM glycine/glycine, pH 7.5 and incubated with radioligand under the following conditions: CHO-C10, CHO-RNG, CHO-C4-[^3H]rauwolscine, 22°C, 30 minutes; RKC-[^3H]rauwolscine, 0°C, 120 minutes; and, HCC-[^3H]prazosin, 22°C, 30 minutes in a final volume of 500 ul. At the end of the incubation period, the samples were filtered through glass filters (Whatman GF/B) in a 96 well cell harvester and rapidly washed four times with 4 mL of iced-cold 50 mM Tris-HCl buffer. The filters were then oven dried and transferred to scintillation vials containing 10 mL of Beckman's Ready Protein® scintillation cocktail for counting. Specific binding defined by 10 uM phentolamine for competition studies were as follows: 2.4 nM [^3H]brimonidine-RbICB 62%; 2.4 nM [^3H]rauwolscine-RbICB 75%; 2 nM [^3H]rauwolscine-RbKc 88%; 0.3 nM [^3H] rauwolscine-CHO-C10 99%; 0.4 nM [^3H]rauwolscine-CHO-RNG 99%, 0.3 nM [^3H]prazosin 87%; and 1 nM [^3H]rauwolscine-CHO-C4 90%. Protein concentrations were determined with a protein assay kit from Bio Rad. Binding isotherms, equilibrium dissociation and affinity constants were analyzed and determined by the non-linear least squares curve fitting programs EBDA (BioSoft) or AccuFit Competition/Saturation by Beckman.
The radioligands [^3H)rauwolscine (specific activity 80 Ci/mmol) and [^3H]prazosin (specific activity 76 Ci/mmol) were obtained from New England Nuclear, Boston, MA. Frozen membrane pellet was resuspended in 25 mM glycine/glycine, pH 7.4 and incubated with radioligand under the following conditions: CHO-C10, CHO-RNG, CHO-C4-[^3H]rauwolscine, 22°C, 30 min.; and, HCC-[^3H]prazosin, 22°C, 30 minutes in a final volume of 500 ul. At the end of the incubation period, the samples were filtered through glass fiber filters (Whatman GF/B) in a 96 well cell harvester and rapidly washed four times with 4 mL of iced-cold 50 mM Tris-CHl buffer. The filters were then oven dried and transferred to scintillation vials containing 5 mL of Beckman's Ready Protein® scintillation cocktail for counting. Specific binding defined by 10 uM phentolamine for competition studies were as follows: 0.3 nM[^3H] rauwolscine-CHO-C10 99%; 0.4 nM [^3H]rauwolscine-CHO-RNG 99%, and 0.3 nM [^3H] prazosin-HCC 87%. Protein concentrations were determined with a protein assay kit from Bio Rad. Binding isotherms, equilibrium dissociation and affinity constants were analyzed and determined by the non-linear least squares curve fitting programs AccuFit Competition/Saturation by Beckman.

Structure (SMILES)	Ki [1]	Ki [2]
c1ccc(Nc2ncc[nH]2)cc1	394 nM	67500 nM
Clc1cccc(Cl)c1Nc1ncc[nH]1	95 nM	5940 nM
Brc1c(Nc2ncc[nH]2)ccc2nccnc12	512 nM	100000 nM
Cc1c(Nc2ncc[nH]2)ccc2nccnc12	31 nM	30600 nM
Cc1c(Nc2ncc[nH]2)ccc2c1NCCO2	6.3 nM	14800 nM

Results, then the compound that gave them:

Ki [1]	Ki [2]	Structure (SMILES)
10 nM	7610 nM	COc1ccc(Nc2ncc[nH]2)c(C)c1
1.7 nM	2150 nM	Cc1c(Nc2ncc[nH]2)ccc2c1OCCO2
287 nM	23200 nM	Clc1ccccc1Nc1ncc[nH]1
39 nM	4980 nM	c1cc2c(c(Nc3ncc[nH]3)c1)CCCC2
214 nM	9980 nM	Brc1ccccc1Nc1ncc[nH]1
73 nM	10600 nM	Cc1ccccc1Nc1ncc[nH]1
